# Experimental data taken from patent US11582989B2, “Stress management in livestock” (Charles Sturt University, priority 2013, dated 2023).
# Where two headings read alike, the source gives them in different places.
# Key:
# [1] = system: C57B16/Ola male mice; test: Novel arena test, freezing response episodes (AnyMaze); assay type: in vivo; conditions: potassium bromide 250 mg/L in drinking water for 7 days, vs normal drinking water
# Method: Animals were placed in the centre of an open arena which was unfamiliar to them and their rate and range of movement tracked by digital recognition software. Distance, speed and time spent immobile were analysed using the AnyMaze™ software. Results were compared statistically using SPSS™.
# [2] = system: C57B16/Ola male mice; conditions: potassium bromide 250 mg/L in drinking water for 7 days
# Method: (§1) A model system was established to induce stress in rodents by repeated behavioural testing using the AnyMaze™ rodent behavioural monitoring system. […] At the end of 7 days animals were subjected to a number of behavioural tests to assess level of stress. Weight gain was also analysed in the treatment group by recording body weight over the initial 7 day period.
# (§2) C57B16/Ola male mice at 5 weeks of age were purchased from MAS Client Services, Monash University, Melbourne, Australia. Animals were weighed at the start of the test period and daily for the duration of testing.
# (§3) Animals were weighed 3 times during the experiment (7 days). To initiate a mildly stressful situation, animals were exposed to novel arena, parallel rod and tremor tests using the mouse AnyMaze™ system (AnyMaze™, Stoelting, U.S.A.).
# [3] = Weight gain under mildly stressful management conditions; assay type: in vivo, mice; conditions: potassium bromide 250 mg/L in drinking water, 7 days, mild stress, vs control
# Method: as §1, §2, §3
# [4] = sheep
# Method: (§4) NaBr solution was administered through the cephalic vein using a 21 gauge needle over a period of 1 minute. Sheep were restrained in a seated position. Blood samples were collected at 0, 1, 5, 10, 15, 20 and 30 min and then at 1, 2, 3, 4, 6, 8, 10, 12, 24 h. Samples thereafter were collected at 12 h intervals to 240 h then at 24 h intervals to 336 h. A final sample was taken at 528 h. For each sample, the initial 2 mL of blood collected was discarded and a sterile syringe used to withdraw 5 mL of blood which was then placed into a plain separator blood tube (Vacuette: Greiner Bio-one). The cannulas were flushed with 3 mL of 5% heparinised saline after each collection. Each blood sample was left to stand for 30 min before centrifugation at 2000 g for 5 min. Serum was harvested and stored at −20° C. until analysis.
# (§5) KBr solution was administered via an orogastric tube, then flushed with 500 mL water. Blood samples were collected at 0, 1, 2, 3, 4, 6, 8, 10, 12, 24 h, then at 12 h intervals to 240 h, then at 24 h intervals to 336 h. A final sample was taken at 504 h. When collecting blood samples at 1 h through to 10 h the rumen was auscultated, over the caudo-dorsal blind sack, to determine if the high salt load affected rumen motility.
# Absorbance was measured with a spectrophotometer at 440 nm.
# [5] = sheep, 120 mg/kg
# Method: as §4, §5
# [6] = Weight gain of Merino ewe lambs after mulesing and tail docking; assay type: in vivo
# [7] = cited from earlier work
# [8] = horse (Raidal and Edwards, 2008); cited from earlier work
# [9] = Podell and Fenner, 1993; cited from earlier work
# [10] = 300 mg/kg LW oral bromide immediately prior to procedure, n=20
smiles,measurement,setting,value
Br [bromide],freezing response episodes in novel arena test,[1],trend towards decreased freezing response episodes
same,signs of ataxia,[2],no signs of ataxia
same,parallel rod touches,[2]; vs normal drinking water,significantly more touches
same,weight gain,[3],increased weight gain
same,t½,[4]; IV,16.2 days
same,absorption following PO administration,[4]; PO,absorbed rapidly
same,half-life (t½),[4]; PO,approximately 14 days
same,serum Br concentration range,"[4]; PO 120 mg/kg, for 14 d",200 to 400 mg/L
same,adverse reactions,[5]; IV and PO groups,No adverse reactions were noted
same,duration of tranquilising effect post-injection,[5]; IV,1 to 2 h
same,tranquilising effect (subjective observation),[5]; IV,mild tranquilising effect
same,neurological effects,[5]; PO group,no discernable neurological effects
same,rumen motility,"[5]; PO group, auscultated 1 h to 10 h",no observed alteration in rumen motility
same,mean weight gain between day 7 and 14,[6]; 300 mg/kg LW oral bromide,1.80 ± 0.30 kg
same,mean live weight on day 51,[6]; [10],22.17 ± 0.86 kg
same,mean weight gain after 51 days,[6]; [10],8.52 ± 0.57 kg
same,Day 1-7 mean weight change,"[6]; 300 mg/kg LW oral bromide, first seven days",-0.564 ± 1.29 kg
same,weight gain compared to untreated counterparts,"[6]; 300 mg/kg LW oral, after 14 days",enhanced weight gain
same,live weight gain,[6]; over 51 days,0.16 kg per head per day
same,weight gain per head per day,[6]; over the 51 days of the trial,0.57
same,increase in production gain,"[6]; vs control, over 51 days",11%
same,t½,"[7]; dog (Trepanier and Babish, 1995)",12 to 24 days
same,bioavailability,"[7]; dog (Trepanier and Babish, 1995b)",40%
same,estimated bioavailability,[8],32-38%
same,t½,[8],approximately 3 d
same,anticonvulsant range (Br concentration),[9],1.0 to 2.0 mg/mL
[Br-].[K+] [potassium bromide],freezing response episodes in novel arena test,[1],trend was towards decreased freezing episodes
same,weight gain,[3],significant weight gain
same,weight gain compared to untreated counterparts,"[6]; 300 mg/kg LW oral at time of mulesing and tail docking, over 51 days",trend towards increased weight gain
